Laboratory results taken from patent US20160038468A1 (priority 2013, published 2016).
Converted amounts (≈) assume the structure as drawn. Like-named read-outs stand apart in the source and are kept apart here.

Assays:
Assay type in all cases: cell-based
Finegoldia magna = experiment: Agar dilution MIC (CLSI), Finegoldia magna vaginal isolates; details: for MIC: read-out: Minimal Inhibitory Concentration (MIC)
Anaerococcus tetradius = experiment: Agar dilution MIC (CLSI), Anaerococcus tetradius vaginal isolates; details: for MIC: read-out: Minimal Inhibitory Concentration (MIC)
Mobiluncus spp = experiment: Agar dilution MIC (CLSI), Mobiluncus spp vaginal isolate; details: read-out: Minimal Inhibitory Concentration (MIC)
M. curtisii = experiment: Agar dilution MIC (CLSI), M. curtisii vaginal isolates; details: 14 samples
[1] = test system: Megasphaera-like bacteria; experiment: Agar dilution MIC (CLSI), Megasphaera-like bacteria vaginal isolates; details: for MIC: read-out: Minimal Inhibitory Concentration (MIC)
Prevotella bivia = experiment: Agar dilution MIC (CLSI), Prevotella bivia vaginal isolates; details: for Number of strains with indicated MIC: 34 samples
[2] = number (%) of isolates, # tested 20
[3] = Anaerococcus tetradius, # tested 21

With `Cc1ncc([N+](=O)[O-])n1CCO` [Metronidazole] the “MIC Range” value (Finegoldia magna; # tested 20) was 0.5 to 4 µg/mL, the MIC (Finegoldia magna; Finegoldia magna, isolate 301303V D) was 0.5 µg/mL (≈ 2.92 µM) and the MIC (Finegoldia magna; Finegoldia magna, isolate 601205V 39) was 4 µg/mL (≈ 23.4 µM). The MIC (Finegoldia magna; Finegoldia magna, isolate 601214V F) was 2 µg/mL (≈ 11.7 µM), the MIC (Finegoldia magna; Finegoldia magna, isolate 601275V c) was 4 µg/mL (≈ 23.4 µM) and the MIC (Finegoldia magna; Finegoldia magna, isolate 601276V 23) was 2 µg/mL (≈ 11.7 µM). It also gave an MIC (Finegoldia magna; Finegoldia magna, isolate 601283V 14) of 2 µg/mL (≈ 11.7 µM), an MIC (Finegoldia magna; Finegoldia magna, isolate 601293V 27) of 2 µg/mL (≈ 11.7 µM) and an MIC (Finegoldia magna; Finegoldia magna, isolate 601295V 25) of 1 µg/mL (≈ 5.84 µM). The MIC (Finegoldia magna; Finegoldia magna, isolate 601298V 30) was 2 µg/mL (≈ 11.7 µM), the MIC (Finegoldia magna; Finegoldia magna, isolate 601308V 24) was 2 µg/mL (≈ 11.7 µM) and the MIC (Finegoldia magna; Finegoldia magna, isolate 601315V 17) was 4 µg/mL (≈ 23.4 µM). The MIC (Finegoldia magna; Finegoldia magna, isolate 601315V 17A) was 4 µg/mL (≈ 23.4 µM), the MIC (Finegoldia magna; Finegoldia magna, isolate 601320V 24) was 4 µg/mL (≈ 23.4 µM) and the MIC (Finegoldia magna; Finegoldia magna, isolate 601323V K) was 0.5 µg/mL (≈ 2.92 µM). The MIC (Finegoldia magna; Finegoldia magna, isolate 601330V c) was 4 µg/mL (≈ 23.4 µM), the MIC (Finegoldia magna; Finegoldia magna, isolate 601335V c1) was 1 µg/mL (≈ 5.84 µM) and the MIC (Finegoldia magna; Finegoldia magna, isolate 601340V 27) was 4 µg/mL (≈ 23.4 µM). It also gave an MIC (Finegoldia magna; Finegoldia magna, isolate 601359V c) of 4 µg/mL (≈ 23.4 µM), an MIC (Finegoldia magna; Finegoldia magna, isolate 601363V 6) of 1 µg/mL (≈ 5.84 µM) and an MIC (Finegoldia magna; Finegoldia magna, isolate 601367V c) of 4 µg/mL (≈ 23.4 µM). It also gave an MIC50 (Finegoldia magna; Finegoldia magna, # tested 20) of 2 µg/mL (≈ 11.7 µM), an MIC90 (Finegoldia magna; Finegoldia magna, # tested 20) of 4 µg/mL (≈ 23.4 µM) and an Intermediate (Finegoldia magna; [2]) of 0 µg/mL. For the same compound, the Susceptible (Finegoldia magna; [2]) was 20 (100) μg/ml, the MIC (Anaerococcus tetradius; Anaerococcus tetradius, isolate 601103V 21) was 1 µg/mL (≈ 5.84 µM) and the MIC (Anaerococcus tetradius; Anaerococcus tetradius, isolate 601175V I) was 1 µg/mL (≈ 5.84 µM). It also gave an MIC (Anaerococcus tetradius; Anaerococcus tetradius, isolate 601202V 11) of 1 µg/mL (≈ 5.84 µM), an MIC (Anaerococcus tetradius; Anaerococcus tetradius, isolate 601212V 14) of 1 µg/mL (≈ 5.84 µM) and an MIC (Anaerococcus tetradius; Anaerococcus tetradius, isolate 601221V 12) of 128 µg/mL (≈ 748 µM). The MIC (Anaerococcus tetradius; Anaerococcus tetradius, isolate 601242V 17) was 1 µg/mL (≈ 5.84 µM), the MIC (Anaerococcus tetradius; Anaerococcus tetradius, isolate 601256V 9) was 1 µg/mL (≈ 5.84 µM) and the MIC (Anaerococcus tetradius; Anaerococcus tetradius, isolate 601287V V) was 1 µg/mL (≈ 5.84 µM). For the same compound, the MIC (Anaerococcus tetradius; Anaerococcus tetradius, isolate 601305V J) was 1 µg/mL (≈ 5.84 µM), the MIC (Anaerococcus tetradius; Anaerococcus tetradius, isolate 601326V H) was 1 µg/mL (≈ 5.84 µM) and the MIC (Anaerococcus tetradius; Anaerococcus tetradius, isolate 601340V 25) was 1 µg/mL (≈ 5.84 µM). For the same compound, the MIC (Anaerococcus tetradius; Anaerococcus tetradius, isolate 601342V N) was 1 µg/mL (≈ 5.84 µM), the MIC (Anaerococcus tetradius; Anaerococcus tetradius, isolate 601368V 42) was 1 µg/mL (≈ 5.84 µM) and the MIC (Anaerococcus tetradius; Anaerococcus tetradius, isolate 601369V 12) was 1 µg/mL (≈ 5.84 µM). It also gave an MIC (Anaerococcus tetradius; Anaerococcus tetradius, isolate 601379V 25) of 1 µg/mL (≈ 5.84 µM), an MIC (Anaerococcus tetradius; Anaerococcus tetradius, isolate 601401V T) of 1 µg/mL (≈ 5.84 µM) and an MIC (Anaerococcus tetradius; Anaerococcus tetradius, isolate 601429V 15) of 1 µg/mL (≈ 5.84 µM). The MIC (Anaerococcus tetradius; Anaerococcus tetradius, isolate 601450V 22) was 1 µg/mL (≈ 5.84 µM), the MIC (Anaerococcus tetradius; Anaerococcus tetradius, isolate 602375V 22) was 1 µg/mL (≈ 5.84 µM) and the MIC50 (Anaerococcus tetradius; [3]) was 1 µg/mL (≈ 5.84 µM). The MIC90 (Anaerococcus tetradius; [3]) was 1 µg/mL (≈ 5.84 µM), the “Number of strains with indicated MIC” value (Anaerococcus tetradius; MIC […], 21 samples) was 1 and the MIC (Mobiluncus spp) was 0.03 µg/mL (≈ 0.175 µM). The “Number of strains with indicated MIC” value (M. curtisii; MIC 64 μg/ml) was 3, the “Number of strains with indicated MIC” value (M. curtisii; MIC >[…]) was 11 and the MIC ([1]; 427510 h, isolate 427507 H) was 0.25 µg/mL (≈ 1.46 µM). For the same compound, the MIC50 ([1]; # tested 25) was 0.25 µg/mL (≈ 1.46 µM), the MIC90 ([1]; # tested 25) was 0.25 µg/mL (≈ 1.46 µM) and the MIC ([1]; isolate 426749 T) was 0.25 µg/mL (≈ 1.46 µM). It also gave an MIC ([1]; isolate 426766 Q) of 0.25 µg/mL (≈ 1.46 µM), an MIC ([1]; isolate 426788 8a) of 0.25 µg/mL (≈ 1.46 µM) and an MIC ([1]; isolate 426788 C) of 0.25 µg/mL (≈ 1.46 µM). The MIC ([1]; isolate 427522 8) was 0.25 µg/mL (≈ 1.46 µM), the MIC ([1]; isolate 600770 O) was 0.25 µg/mL (≈ 1.46 µM) and the MIC ([1]; isolate 600790 N) was 0.25 µg/mL (≈ 1.46 µM). For the same compound, the MIC ([1]; isolate 600831 9) was 0.25 µg/mL (≈ 1.46 µM), the MIC ([1]; isolate 600837 18) was 0.25 µg/mL (≈ 1.46 µM) and the MIC ([1]; isolate 600861 P) was 0.25 µg/mL (≈ 1.46 µM). It also gave an MIC ([1]; isolate 602236 E3) of 50.2 µg/mL (≈ 294 µM), an MIC ([1]; isolate 602241 D) of 0.25 µg/mL (≈ 1.46 µM) and an MIC ([1]; isolate 602241 F) of 0.25 µg/mL (≈ 1.46 µM). The MIC ([1]; isolate 602270 A) was 0.25 µg/mL (≈ 1.46 µM), the MIC ([1]; isolate 602282 I) was 0.25 µg/mL (≈ 1.46 µM) and the MIC ([1]; isolate 602302 22) was 0.25 µg/mL (≈ 1.46 µM). For the same compound, the MIC ([1]; isolate 602305 I) was 0.25 µg/mL (≈ 1.46 µM), the MIC ([1]; isolate 602324 8) was 0.25 µg/mL (≈ 1.46 µM) and the MIC ([1]; isolate 602672 12A) was 0.25 µg/mL (≈ 1.46 µM). The “MIC Range” value (Prevotella bivia; # tested 34) was 4 to 16 µg/mL, the “Number of strains with indicated MIC” value (Prevotella bivia; MIC 8 μg/ml) was 6 and the “Number of strains with indicated MIC” value (Prevotella bivia; MIC 16 μg/ml) was 13.
